Assay results from paper PMC9738927, “A Newly Identified Monoterpenoid-Based Small Molecule Able to Support the Survival of Primary Cultured Dopamine Neurons and Alleviate MPTP-Induced Toxicity In Vivo” (Molecules, 2022).

How the values were obtained:
[1] = system: MPP^+-treated primary midbrain dopamine neurons; experiment: Survival of MPP+-challenged cultured dopamine neurons (TH-positive cell count); type: cell-based, mouse
Experimental: We developed a compound library containing 20 diol derivatives and screened them on cultured primary DA neurons (Supplementary Materials, Table S1). Compounds were taken at a dose of 0.1 and 1 μM (based on effective doses for the epoxydiol). Based on the screening results, we selected four compounds and tested them in a naïve and MPP^+-treated (1-methyl-4-phenylpyridinium (MPP^+), the neurotoxic metabolite of MPTP) DA culture at 1, 10, and 100 nM to select the compound with the lowest effective dose.
The survival of cultured mouse DA neurons was assessed as described before. Briefly, naïve or MPP^+ (dopaminergic selective neurotoxin)-challenged embryonic midbrain neurons were cultured in the presence or absence of a diol-like compound. The number of survived DA neurons was estimated after immunocytochemical staining with antibodies recognizing the key enzyme of dopamine synthesis—tyrosine hydroxylase.

[2] = Pharmacokinetics in brain tissue after a single oral dose (HPLC-MS/MS); type: in vivo, CD1 IGS mice; conditions: single oral 10 mg/kg
Experimental: CD1 IGS mice received a single oral dose of PA96 in Tween 80 (10 mg/kg). Mice were sacrificed 5, 10, 30, 60, and 120 min after injection, and all brain samples were collected and placed into an Eppendorf microtube (2 mL). Samples were frozen with liquid nitrogen for subsequent preparation and HPLC-MS/MS analysis. A set of calibrators were prepared, followed by their preparation protocol, and analyzed. The calibration curve was built in the interval of 1–100 ng/g and used to calculate the PA96 concentration in the brain tissue samples.
A stock solution was prepared by dissolving approximately 10 mg of PA96 in a required amount of pure methanol to have the solution with a concentration of 1.0 mg/mL. The working solutions of PA96 with concentrations of 5, 7.5, 25, 50, 75, 250, and 300 ng/mL were prepared by diluting the stock solution with methanol. To prepare a calibrator, a free PA96 brain tissue (~50 mg) was weighed and transferred into an Eppendorf microtube (V = 1.5 mL), then the working solution of PA-96 was added. The mixture was homogenized (Minilys, Bertin Technologies, Montigny-leBretonneux, France) for 60 s at low speed. The calibrators were prepared on the day of the experiment. The working solution of IS in acetonitrile with a concentration of 1.0 mg/mL was used. All the solutions were stored at −18 °C. Before sample preparation, the solutions were brought to room temperature.
The exact amount (~50 mg) of the mouse brain tissue sample was transferred into a polypropylene tube (1.5 mL). For each portion, the solution of IS (1 µL per 1 mg of the brain sample) and pure acetonitrile (10 µL per 1 mg of the brain sample) were added, then all samples were homogenized for 4 min at medium speed. After the homogenization procedure, ~100 mg of the salt mixture (magnesium sulfate: sodium chloride: trisodium citrate: disodium citrate as 4:1:1:0.5) for extraction was added, followed by shaking for 30 min at 1400 rpm in an orbital shaker. The supernatant was separated from the homogenate by centrifugation for 10 min at 13,400 rpm. The obtained solution was further shaken with ~80 mg of the SPE mixture (magnesium sulfate:C18EC as 6:1 and acetonitrile) for 10 min at 1400 rpm and centrifuged for 10 min at 13,400 rpm. A total of 300 µL of the organic phase was placed into a fresh tube and evaporated to dryness in a vacuum. The residue containing the analyte and IS was dissolved in 150 μL of methanol, shaken for 10 min, transferred into a chromatographic vial, and analyzed by HPLC-MS/MS.
The LC-MS/MS analysis was performed using an LC-20AD Prominence chromatograph equipped with an autosampler thermostated at +10 °C (Shimadzu, Japan) and a 3200 QTRAP mass spectrometer equipped with an ESI source (AB SCIEX, USA). Separation was achieved on a ProntoSil-120-5-C18 AQ column (2.0 × 75 mm, 5 μm particles, (EcoNova, Novosibirsk, Russia)) thermostated at +35 °C. The mobile phase was composed of water containing 0.1% formic acid (eluent A) and methanol containing 0.1% formic acid (eluent B). The gradient elution program was as follows: 0 min-10% (B); 0.5 min-10% (B); 7 min-98% (B); 9 min-98% (B); the flow rate was 200 μL/min.
The mass spectrometer was operated using multiple reaction monitoring (MRM) in positive ion mode. Ionization was conducted by applying a voltage of 5500 V, and the source temperature was set at +350 °C. For the analyte and IS, the optimized source parameters, viz. CUR (curtain gas), GS1 (Gas 1), and GS2 (Gas 2) were set at 20 psi. The CAD (collisionally activated dissociation) gas was nitrogen, and the parameter was set as high. The parameters of PA96, viz. MRM transitions, declustering potentials (DP), collision energies (CE), and collision cell exit potentials (CXP) are presented in Table 3. The dwell time was 100 msec. Analyst 1.6.2 software (AB SCIEX, USA) was used for instrument control and data acquisition, and MultiQuant 2.1 software (AB SCIEX, USA) was used for quantification. […]

SMILES: C=C(C)[C@@H]1CC=C(C)[C@@H](Sc2nc[nH]n2)[C@@H]1O [PA96, (1R,2R,6S)-2-(1H-1,2,4-triazol-3-ylthio)-3-methyl-6-(prop-1-en-2-yl)cyclohex-3-enol]
- number of TH-positive neurons relative to VEH-treated wells ([1]; MPP+ and 1 nM, p = 0.03): 2.4 fold
- inhibition at 0.1 µM ([1]; Mus musculus, Neuron, 100 nM, compared to VEH-treated wells, read-out: Support effect / inhibition, MPP+-treated dopamine neurons, 100 nM): 0%
- Kp ([2]; CD1 IGS, mouse, brain and whole blood, read-out: Kb,brain (brain-to-blood coefficient, AUCbrain/AUCblood)): 0.119 ± 0.01
- Cmax ([2]; CD1 IGS, mouse, brain): 125 ng/g
- Tmax ([2]; CD1 IGS, mouse, brain): 5 min
- half-life ([2]; CD1 IGS, mouse, brain): 18.8 ± 0.3 min
- MRT inf ([2]; CD1 IGS, mouse, brain, read-out: MRT0-inf_obs (converted)): 21.5 min
- concentration in blood higher than in brain tissue ([2]; at 5 min): approximately 4.5 times
- AUC0-inf_obs ([2]; brain): (2.03 ± 0.09) × 10^3 ng/g∗min
- AUC0-t ([2]; brain): (1.99 ± 0.09) × 10^3 ng/g∗min
- time at which the concentration in brain was close to the minimum value [2]: 2 h
